PMC5726399 (Neuropharmacology, 2017)
“Also recorded” adds a separate entry of the source. Where a name gives a salt, the structure may show the parent alone. Read-outs that look alike come from different tables or passages of the source. Where no end group is shown, it is not given here.

What was measured:
NMDA receptors [1] = conditions: ref Chen et al., 2010, cited from earlier work; for effect on NMDA-induced substance P release: Marvizon et al., 1997
AC/PKA pathway = assay: NK1R internalization induced by forskolin or 8-Br-cAMP in slices; parameters: species or system rat; conditions: 60 min; for NK1R internalization elicited: 10 μM forskolin or 0.5 mM 8-Br-cAMP, no NMDA
[2] = test system: NMDA receptor-induced substance P release; assay: NMDA-induced NK1R internalization in slices preincubated with BVT948; parameters: species or system rat; conditions: 10 μM BVT948, 60 min preincubation
protein kinase A (PKA) = assay: PKA inhibition: NMDA-induced NK1R internalization in slices; parameters: species or system rat; conditions: 10 μM, 60 min
[3] = test system: CTX-insensitive component of NMDA-induced substance P release; assay: CTX-insensitive component of NMDA-induced substance P release in slices; parameters: species or system rat; conditions: 1 μM DAMGO, 100 μM SQ22536 or 10 μM KT5720, 60 min; for additional inhibition in presence of CTX GVIA: 1 μM CTX GVIA; for additional inhibition in presence of CTX MVIIC: 1 μM CTX MVIIC
[4] = test system: substance P release / NK1R internalization in lamina I neurons; assay: In vivo NK1R internalization induced by intrathecal NMDA; parameters: species or system rat; conditions: for lamina 1 neurons with NK1R internalization in example image: confocal image, one rat per group, L4
[5] = test system: NMDA receptors in DRG neurons; assay type: cell-based, rat
NMDA receptors [6] = assay: NMDA-induced NK1R internalization in spinal cord slices; parameters: species or system rat; conditions: 10 μM NMDA + 10 μM D-Ser, 2 min, 35 °C
protein kinase C (PKC) = assay: PKC inhibitors and activators: NMDA-induced NK1R internalization in slices; parameters: species or system rat; conditions: for effect on NMDA-induced substance P release: 60 min
adenylyl cyclase (AC) = assay: AC inhibition: NMDA-induced NK1R internalization in slices; parameters: species or system rat; conditions: SQ22536 10 μM, 60 min
TRPV1 channels [7] = conditions: cited from earlier work
TRPV1 channels [8] = test system: TRPV1 channels; parameters: species or system rat
NR1a/NR2B NMDA receptors = conditions: Xenopus oocytes; ref Williams, 1993; cited from earlier work
rat brain membranes = conditions: ref Grimwood et al., 2000; cited from earlier work
[9] = molecular target: NMDA receptors with the NR2B subunit (Rattus norvegicus, UniProt P35439+Q00960); conditions: % NK1R internalization
NMDA receptors with the NR2B subunit, sequence (Q00960 27-1482, other chains not shown): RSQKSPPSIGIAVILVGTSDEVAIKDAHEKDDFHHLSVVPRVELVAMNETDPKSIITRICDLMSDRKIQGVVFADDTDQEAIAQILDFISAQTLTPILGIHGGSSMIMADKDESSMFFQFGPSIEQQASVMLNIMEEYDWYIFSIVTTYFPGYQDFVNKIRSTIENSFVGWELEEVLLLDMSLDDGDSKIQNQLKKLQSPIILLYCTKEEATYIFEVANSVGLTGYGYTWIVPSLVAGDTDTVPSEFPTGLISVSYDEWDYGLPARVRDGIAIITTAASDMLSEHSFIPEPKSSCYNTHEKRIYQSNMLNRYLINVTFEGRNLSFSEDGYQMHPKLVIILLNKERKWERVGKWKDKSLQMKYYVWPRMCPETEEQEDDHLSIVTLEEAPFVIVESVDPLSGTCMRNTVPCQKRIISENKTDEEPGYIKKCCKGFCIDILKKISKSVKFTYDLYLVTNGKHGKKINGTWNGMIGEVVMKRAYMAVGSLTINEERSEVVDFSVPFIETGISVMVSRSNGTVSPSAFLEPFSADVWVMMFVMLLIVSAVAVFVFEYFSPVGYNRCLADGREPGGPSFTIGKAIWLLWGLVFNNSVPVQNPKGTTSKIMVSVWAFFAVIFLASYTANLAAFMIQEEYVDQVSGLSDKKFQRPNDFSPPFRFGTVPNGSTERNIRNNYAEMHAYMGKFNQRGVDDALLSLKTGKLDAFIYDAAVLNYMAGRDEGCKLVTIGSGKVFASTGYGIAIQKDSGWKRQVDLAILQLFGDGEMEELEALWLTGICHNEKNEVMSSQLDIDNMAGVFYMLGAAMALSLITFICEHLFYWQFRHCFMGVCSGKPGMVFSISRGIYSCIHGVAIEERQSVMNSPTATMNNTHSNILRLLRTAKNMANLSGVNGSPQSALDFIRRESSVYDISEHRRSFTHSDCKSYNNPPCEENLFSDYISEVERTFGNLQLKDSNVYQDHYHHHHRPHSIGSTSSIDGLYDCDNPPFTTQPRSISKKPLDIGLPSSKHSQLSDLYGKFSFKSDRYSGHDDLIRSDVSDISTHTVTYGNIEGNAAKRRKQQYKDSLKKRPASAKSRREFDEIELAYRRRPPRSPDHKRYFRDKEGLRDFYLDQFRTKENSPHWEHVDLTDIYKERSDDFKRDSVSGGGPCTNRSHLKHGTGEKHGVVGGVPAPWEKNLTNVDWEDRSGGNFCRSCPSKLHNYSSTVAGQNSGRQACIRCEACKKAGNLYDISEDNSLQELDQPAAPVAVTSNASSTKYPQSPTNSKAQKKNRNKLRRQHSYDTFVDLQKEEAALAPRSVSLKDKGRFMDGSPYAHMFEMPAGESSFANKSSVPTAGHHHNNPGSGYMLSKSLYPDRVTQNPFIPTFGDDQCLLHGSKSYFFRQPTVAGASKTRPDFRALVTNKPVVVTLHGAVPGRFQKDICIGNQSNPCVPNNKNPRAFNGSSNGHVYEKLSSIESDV

GIRK channels = test system: GIRK channels; parameters: species or system rat
[10] = test system: NMDA receptor-induced substance P release; assay: NMDA-induced NK1R internalization in slices preincubated with BDNF; parameters: species or system rat
[11] = chelerythrine 10 μM, Ro-32-0432, TPPB 1 μM, with 10 nM DAMGO
[12] = chelerythrine 10 μM, Ro-32-0432, TPPB, PMA 1 μM

Molecule: NC(CCCP(=O)(O)O)C(=O)O (centres unmarked) [2-amino-phosphopentanoic acid]
- effect on NMDA-induced substance P release (NMDA receptors [1]): inhibited

Molecule: Nc1ncnc2c1nc(Br)n2[C@@H]1O[C@@H]2COP(=O)(O)O[C@H]2[C@H]1O [8-Br-cAMP, 8-Bromoadenosine-3′,5′-cyclic monophosphate]
- NK1R internalization elicited (AC/PKA pathway): greater than NMDA+D-Ser, with 8-Br-cAMP producing the larger effect

Molecule: CC1(C)C(=O)N=C2C1=C(O)C(=O)c1ccccc12 [BVT948, 4-hydroxy-3,3-dimethyl-2H-benz[g]indole-2,5(3H)-dione]
- effect on NMDA-induced NK1R internalization [2]: substantially increased NMDA-induced NK1R internalization

Molecule: CCCCCCOC(=O)[C@]1(O)C[C@@H]2O[C@@]1(C)n1c3ccccc3c3c4c(c5c6ccccc6n2c5c31)C(=O)NC4 [KT5720, (9R,10S,12S)-2,3,9,10,11,12-Hexahydro-10-hydroxy-9-methyl-1-oxo-9,12-epoxy-1H-diindolo[1,2,3-fg:3′,2′,1′-kl]pyrrolo[3,4-i][1,6]benzodiazocine-10-carboxylic acid, hexyl ester]
- effect on NMDA-induced NK1R internalization (protein kinase A (PKA)): did not completely abolish NMDA-induced NK1R internalization
- effect on NMDA-induced NK1R internalization (protein kinase A (PKA); listed as KT 5720): decreased
- additional inhibition in presence of CTX GVIA [3]: did not produce any further inhibition
- additional inhibition in presence of CTX MVIIC [3]: did not produce any further inhibition

Molecule: C[C@]12N[C@H](Cc3ccccc31)c1ccccc12 [MK-801, (5S,10R)-(+)-5-Methyl-10,11-dihydro-5H-dibenzo[a, d]cyclohepten-5,10-imine maleate]
- effect on NMDA-induced substance P release (NMDA receptors [1]): inhibited
- effect on forskolin-evoked substance P release (AC/PKA pathway; 10 μM MK-801 or 1 μM DAMGO with 10 μM forskolin): substantially decreased their effect on substance P release, although not to control levels
- effect on 8-Br-cAMP-evoked substance P release (AC/PKA pathway; 10 μM MK-801 or 1 μM DAMGO with 0.5 mM 8-Br-cAMP): substantially decreased their effect on substance P release, although not to control levels

Molecule: CN[C@H](CC(=O)O)C(=O)O [NMDA, N-methyl-D-aspartate]
- lamina 1 neurons with NK1R internalization in example image [4]: there was no NK1R internalization
- [Ca2+]i increase [5]: increases in some of the neurons
- NK1R internalization induced (lamina I NK1R neurons) (NMDA receptors [6]): about 50%

Molecule: CN(C)C[C@H]1CCn2c(c(C3=C(c4cn(C)c5ccccc45)C(=O)NC3=O)c3ccccc32)C1.Cl [Ro-32-0432, 3-[(8S)-8-[(Dimethylamino)methyl]-6,7,8,9-tetrahydropyrido[1,2-a]indol-10-yl]-4-(1-methyl-1H-indol-3-yl)-1H-pyrrole-2,5-dione hydrochloride]
- effect on inhibition by 10 nM DAMGO (protein kinase C (PKC); [11]): did not increase its inhibition by DAMGO
- effect on NMDA-induced substance P release (protein kinase C (PKC); [12]): did not affect NMDA-induced substance P release

Molecule: Nc1ncnc2c1ncn2C1CCCO1 (centres unmarked) [SQ22536, 9-(Tetrahydro-2-furanyl)-9H-purin-6-amine]
- effect on NMDA-induced NK1R internalization (adenylyl cyclase (AC)): but not at 10 μM
- additional inhibition in presence of CTX GVIA [3]: did not produce any further inhibition
- additional inhibition in presence of CTX MVIIC [3]: did not produce any further inhibition

Molecule: CC(C)[C@H]1C(=O)N[C@H](CO)Cc2cc(NC(=O)/C=C/C=C/c3ccc(C(F)(F)F)cc3)ccc2N1C [TPPB, (2E4E)-N-[(2S,5S)-1,2,3,4,5,6-Hexahydro-5-(hydroxymethyl)-1-methyl-2-(1-methylethyl)-3-oxo-1,4-benzodiazocin-8-yl]-5-[4-(trifluoromethyl)phenyl]-2,4-pentadienamide]
- effect on inhibition by 10 nM DAMGO (protein kinase C (PKC)): did not affect inhibition by 10 nM DAMGO
- effect on NMDA-induced substance P release (protein kinase C (PKC)): strongly increased NMDA-induced substance P release

Molecule: NCC(CC(=O)O)c1ccc(Cl)cc1 (centres unmarked) [baclofen]
- effect on substance P release by dorsal root or low-concentration capsaicin (TRPV1 channels [7]; capsaicin on dorsal root or low concentrations, ref Lao et al., 2003): can be inhibited
- effect on substance P release by higher concentrations of capsaicin (TRPV1 channels [7]; higher capsaicin concentrations, ref Lao et al., 2003): did not inhibit substance P release

Molecule: COc1cc(CNC(=O)CCCC/C=C/C(C)C)ccc1O [capsaicin]
- effect of substance P depletion on NMDA-induced substance P release (NMDA receptors [1]; C-fibers depleted by incubating slices with capsaicin): disappears
- EC50 (TRPV1 channels [7]; read-out: EC50 to induce NK1R internalization, ref Marvizon et al., 2003a): 370 nM
- NK1R internalization elicited by 0.3 μM capsaicin (TRPV1 channels [8]): 75%
- NK1R internalization elicited by 1 μM capsaicin (TRPV1 channels [8]): maximal NK1R internalization

Molecule: Oc1cc2c(cc1O)CN(C(=S)NCCc1ccc(Cl)cc1)CCC2 [capsazepine]
- effect on capsaicin-induced substance P release (TRPV1 antagonist) (TRPV1 channels [7]; ref Lao et al., 2003): blocked

Molecule: COc1ccc2c(c[n+](C)c3c4cc5c(cc4ccc23)OCO5)c1OC [chelerythrine]
- effect on inhibition by 10 nM DAMGO (protein kinase C (PKC); [11]): did not increase its inhibition by DAMGO; also recorded: showed a trend to decrease the inhibition by 10 nM DAMGO
- effect on NMDA-induced substance P release (protein kinase C (PKC); [12]): did not affect NMDA-induced substance P release

Molecule: C=C[C@@]1(C)CC(=O)[C@]2(O)[C@@]3(C)[C@@H](O)CCC(C)(C)[C@@H]3[C@H](O)[C@H](OC(C)=O)[C@@]2(C)O1 [forskolin]
- NK1R internalization elicited (AC/PKA pathway): greater than NMDA+D-Ser

Molecule: CC(C(O)c1ccc(O)cc1)N1CCC(Cc2ccccc2)CC1 (centres unmarked) [ifenprodil]
- potency to inhibit currents (NR1a/NR2B NMDA receptors): 340 nM
- Kd (rat brain membranes): 25 nM
- top [9]: 62 ± 3%
- bottom ([9]; basal without NMDA 12±1%): 26 ± 2%

Molecule: CCN(CC)CC(=O)Nc1c(C)cccc1C [lidocaine]
- effect on NMDA-induced substance P release (action potential block) (NMDA receptors [1]): not affected

Molecule: PKI 14–22: protein kinase inhibitor 14–22, PKA inhibitor (GRTGRRNAI; also: myristoylated; UniProt P61925 15-23, looked up, fragment)
- effect on NMDA-induced NK1R internalization (protein kinase A (PKA)): decreased

Molecule: tertiapin Q
- effect on NMDA-induced NK1R internalization (GIRK channels): small but significant inhibition
- effect on inhibition by DAMGO (GIRK channels): did not affect the inhibition by DAMGO

B1: BDNF: brain-derived neurotrophic factor (protein, UniProt P23560 19-247, looked up)
Neurotrophic factor BDNF …: APMKEANIRGQGGLAYPGVRTHGTLESVNGPKAGSRGLTSLADTFEHVIEELLDEDQKVRPNEENNKDADLYTSRVMLSSQVPLEPPLLFLLEEYKNYLDAANMSMRVRRHSDPARRGELSVCDSISEWVTAADKKTAVDMSGGTVTVLEKVPVSKGQLKQYFYETKCNPMGYTKEGCRGIDKRHWNSQCRTTQSYVRALTMDSKKRIGWRFIRIDTSCVCTLTIKRGR
- lamina 1 neurons with NK1R internalization in example image [4]: 5 out of 7 cells
- effect of BDNF on NMDA-induced NK1R internalization ([4]; intrathecal BDNF 0.3 μg, 4 h before NMDA + D-Ser, p<0.01 vs NMDA): significant increase in NMDA-induced NK1R internalization
- effect on NMDA-induced NK1R internalization [10]: increased NMDA-induced NK1R internalization
